This is an account of results in article PMC5006061 (Biochimie, 2016).

Assay [1] concerns the target T1, GLUT1 (Mus musculus, UniProt P17809).
T1 sequence (P17809 1-492): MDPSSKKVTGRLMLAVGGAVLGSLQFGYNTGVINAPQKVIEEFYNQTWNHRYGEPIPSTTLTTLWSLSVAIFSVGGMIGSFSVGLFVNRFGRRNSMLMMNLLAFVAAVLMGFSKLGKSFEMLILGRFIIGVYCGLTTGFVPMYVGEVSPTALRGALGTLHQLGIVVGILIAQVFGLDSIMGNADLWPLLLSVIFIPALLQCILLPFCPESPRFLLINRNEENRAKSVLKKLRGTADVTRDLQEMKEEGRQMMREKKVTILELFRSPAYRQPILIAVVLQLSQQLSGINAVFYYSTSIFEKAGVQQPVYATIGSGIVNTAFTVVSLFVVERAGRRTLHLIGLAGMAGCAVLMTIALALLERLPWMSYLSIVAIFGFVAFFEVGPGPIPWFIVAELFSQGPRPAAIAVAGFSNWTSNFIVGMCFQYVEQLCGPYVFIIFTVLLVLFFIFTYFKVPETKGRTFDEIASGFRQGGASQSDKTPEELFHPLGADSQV
The assay can be described thus: Inhibition of 3H-2-deoxyglucose uptake in L929 cells. It counts as cell-based.

For assay [2], the target named is T2, GLUT1 (Homo sapiens, UniProt P11166).
T2 sequence (P11166 1-492): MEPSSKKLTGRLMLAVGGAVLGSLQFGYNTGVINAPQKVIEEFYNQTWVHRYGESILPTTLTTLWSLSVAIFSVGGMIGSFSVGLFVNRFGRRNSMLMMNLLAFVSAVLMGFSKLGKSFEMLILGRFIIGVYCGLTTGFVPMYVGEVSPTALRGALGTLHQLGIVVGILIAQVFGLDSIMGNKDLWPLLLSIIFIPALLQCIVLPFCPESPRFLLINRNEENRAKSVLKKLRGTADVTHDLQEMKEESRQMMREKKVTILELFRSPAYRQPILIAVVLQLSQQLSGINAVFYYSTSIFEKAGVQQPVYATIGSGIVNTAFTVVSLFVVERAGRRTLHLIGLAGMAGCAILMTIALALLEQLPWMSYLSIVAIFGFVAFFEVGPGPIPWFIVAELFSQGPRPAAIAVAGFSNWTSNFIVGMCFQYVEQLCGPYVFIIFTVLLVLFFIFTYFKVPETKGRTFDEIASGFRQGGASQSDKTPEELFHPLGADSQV
The assay can be described thus: Reduction of specific 3H-cytochalasin B binding in HCLE cells. It counts as cell-based.

Consider `COc1cc(/C=C/C(=O)CC(=O)/C=C/c2ccc(O)c(OC)c2)ccc1O` [Cur, Curcumin], for which the IC50 at GLUT1 [1] was 19 µM. Moreover, the “Reduction of specific 3H-cytochalasin B binding in HCLE cells; 2DG uptake inhibi” value on GLUT1 [2] is on record as 80% reduction at 75.

Usually IC50 stands for the concentration that gives 50% inhibition.
